According to patent US20250188032A1, “NITROGEN-CONTAINING HETEROCYCLIC COMPOUNDS AND USES THEREOF” (BNH RESEARCH CO., LTD., priority 2022, published 2025):

Key:
[1] = test system: 293T cells; experiment: Cytotoxicity test (CCK-8 cell viability) in 293T cells; format: cell-based, human
[2] = test system: C57BL/6J mice barrel cortex (layer 4); experiment: Synaptic function test: TC EPSC potency and GABA/AMPA ratio in barrel cortex (layer 4); format: in vivo
Description: Eight weeks old male C57BL/6J mice were anesthetized with isoflurane during surgery. The mice were then be placed in a stereotaxic frame (RWD Life Science, China). The parietal and the frontal bones were exposed by a sagittal incision of the scalp at the midline from the level of the eyes to the occipital protuberance. A small burr hole was drilled after exposing the skull. The injection cannula was placed at the following coordinates: (Mouse: Bregma −3.30, lateral −1.50, and ventral 0.7 mm). Sterile saline solution (+/−a compound of the present disclosure) was perfused at a constant flow rate of 0.5 μL/h through the injection cannula using a mini-Os pump (DURECT Corporation ALZET Osmotic Pumps, CA). Implantation was done in layer 4 of the barrel cortex ipsilateral. To estimate extent of the diffusion of the injected compound in layer 4 barrel cortex during pump injection, methylene blue was first injected to stain the diffusion area. On average methylene blue diffused to […] away from the injection site (the total area of the barrel cortex region is about 1500 μm). Based on this analysis, the present inventors recorded from barrel cortex area.
2 mg of BnH12001 was dissolved in 800 ul of DMSO and prepared as a stock solution. For oral administration, BnH12001 DMSO stock:PEG400:Saline was mixed in a ratio of 5:55:40 and 200 μl/animal was administered. For the control group, a vehicle in which DMSO:PEG400:Saline was mixed in a 5:55:40 ratio was administered at 200 ul/animal. In the single drug administration test, the compound was administered once a day for about 11 to 12 days at a dose of 1 mg/kg. Dose response test was performed by administering the compound once a day for about 11 to 12 days at doses of 0.03, 0.1, 0.3, 1, 3, and 10 mg/kg. 5 mice were used for the compound administration group and the control group, respectively.
For TC or hippocampus slice preparation. 9 to 10 weeks-old male C57BL/6J mice were anesthetized with isoflurane. Then, the brain was rapidly cooled via transcardial perfusion with ice-cold sucrose-artificial cerebrospinal fluid (aCSF). The brain was removed and placed in ice-cold sucrose aCSF. Paracoronal slices were prepared at an angle of 50° relative to the midline on a ramp at an angle of 10°. Then, slices were incubated in aCSF at 35° C. for 30 minutes to recover. Slices were then incubated in aCSF at room temperature (23 to 25° C.) for 1 to 4 hours before being placed in the recording chamber for experiments. The standard aCSF contains saturated with 95% O2/5% CO2. The brain of the mouse was removed and cut into 400 μm at a 50° angle (mouse at a 55° angle) to attach the cut portion to the vibratome disc to be the bottom. Brain slice was incubated in 35° C. in aCSF solution for 30 minutes, or at RT in aCSF solution for 1 hour.
All electrophysiological experiments were conducted at 27 to 29° C. For electrophysiological experiments, electrodes with […] resistance were used and stimuli were applied to the ventral posteromedial nucleus (VPM) using a concentric bipolar electrode (FHC, Bowdoin, ME). The somatosensory cortex was identified by the presence of barrels under 4× magnification and differential interference contrast (DIC) optics, and by the ability to evoke short and constant latency field excitatory postsynaptic potentials (fEPSPs) by VPM stimulation. Whole-cell voltage-clamp recordings were made from stellate cells (SC) in layer IV of the somatosensory barrel cortex using infrared illumination and differential interference contrast (DIC) optics. The composition of whole cell recording solution is shown as follows:
Whole cell recordings were made using a multiclamp 700A (Molecular devices, Sunnyvale, CA) digitized at 10 kHz and filtered at 2 kHz. […]

[3] = Os pump, injected into layer 4 of barrel cortex, 3 μM, 2 weeks, 8-week-old C57BL/6J mice
[4] = oral, 1 mg/kg, 8-week-old C57BL/6J mice

SMILES	Change in cell viability ([1]; 0, 0.1, 1, 10, 100 μM, 293T)	Balance of excitation/inhibition (GABA/AMPA ratio) [2, 3]	Excitatory TC synaptic potency (TC potency) [2, 3]	Balance of excitation/inhibition (GABA/AMPA ratio) [2, 4]	TC synaptic potency in the sensory cortex [2, 4]	TC EPSC potency in the layer 4 barrel cortex ([2]; orally-applied, 3 μM)	Cell viability test results (CCK) 10 uM ([1]; 10 uM, 24 hours co-incubation, 293T cell line, % of control) [%<]	Cell viability test results (CCK) 100 uM ([1]; 100 uM, 24 hours co-incubation, 293T cell line, % of control) [%<]	Efficacy on TC synaptic potency compared among racemate and enantiomers [2, 4]
CC1CCC(C(=O)O)CN1C(=O)Cc1ccc(F)cc1Cl (racemic) [BnH12001, 1-(2-(2-chloro-4-fluorophenyl)acetyl)-6-methylpiperidine-3-carboxylic acid]	no significant change in cell viability	maintained	significantly increased	maintaining the balance of excitation/inhibition	increase the TC synaptic potency	significantly augmented	–	–	–
C[C@@H]1CC[C@H](C(=O)O)CN1C(=O)Cc1ccc(F)cc1Cl [BnH12001 enantiomer (3S,6R, 98%<), (3S,6R)-1-(2-(2-chloro-4-fluorophenyl)acetyl)-6-methylpiperidine-3-carboxylic acid]	–	–	–	maintaining the balance of excitation/inhibition	increase the TC synaptic potency	–	99	95	highest efficacy
